Common to all, as to assay type: in vivo
Experiment [1] concerns Aphis gossypii. Kind of experiment: Efficacy test against Aphis gossypii (Test Example 2). Conditions: 144 h, sprayed on cucumber plants with nymphs, 6 days after spraying, read-out: Insect mortality rate. How it is done: (§1) 5 parts of the compound of the present invention, 93.6 parts of dimethylformamide and 1.4 parts of polyoxyethylene alkyl aryl ether were mixed and dissolved to prepare Emulsion (I) including 5% of an active ingredient. For the control, Emulsion (II) was prepared by mixing and dissolving 93.6 parts of dimethylformamide and 1.4 parts of polyoxyethylene alkyl aryl ether.
(§2) An insect mortality rate was calculated by the numerical equation shown below.
(§3) Insect mortality rate (%)={(Number of dead insects)/(Number of sample insects)}×100
Cucumber seedlings were inoculated with nymphs of Aphis gossypii. Emulsion (I) was diluted with water so that the concentration of the compound of the present invention was 125 ppm. Subsequently, the aforementioned diluted liquid was sprayed on the cucumber plants on which the nymphs of Aphis gossypii were parasitic. The aforementioned cucumber plants were then placed in a thermostatic chamber with a temperature of 25° C. and humidity of 60%. Mortality was investigated 6 days after spraying was carried out, and the insect mortality rate of Aphis gossypii was calculated.

The subject of experiment [2] is Mythimna separata. Description: Efficacy test against Mythimna separata (Test Example 1). Conditions: 144 h, corn leaves soaked, second-instar larvae, 6 days after inoculation, read-out: Insect mortality rate. As for the experimental part:
as §1, §2, §3
(Test Example 1) Efficacy Test against Mythimna separata Emulsion (I) was diluted with water so that the concentration of the compound of the present invention was 125 ppm. Corn leaves were soaked in the diluted liquid for 30 seconds. Subsequently, the corn leaves were put on Petri dishes, followed by inoculating 5 second-instar larvae of Mythimna separata. The Petri dishes were placed in a thermostatic chamber at a temperature of 25° C. and humidity of 60%. Mortality was investigated 6 days after inoculation, and the insect mortality rate was calculated.

The subject of experiment [3] is Thrips palmi. Kind of experiment: Efficacy test against Thrips palmi, spray on cucumber seedlings (Test Example 3). Conditions: 168 h, sprayed on cucumber seedlings, 7 days after spraying, read-out: controlling rate. As for the experimental part:
as §1
Cucumber seedlings were inoculated with 8 adults of Thrips palmi. Emulsion (I) was diluted with water so that the concentration of the compound of the present invention was 125 ppm. Subsequently, the aforementioned diluted liquid was sprayed on the cucumber seedlings, and then air dried. The number of the parasitic larvae was counted 7 days after spraying. The efficacy of the compounds was evaluated by the controlling rate described below.
Controlling rate (%)={1−(Nt)/(Nc)}×100
In which Nt: number of parasites at the legion spray-treated. • Nc: number of parasites at the legion non-treated (control).

The term mortality denotes the share of the test organisms that died.

Each structure is given as a SMILES string.

As for `CN1OC2(N=C1NC(C)(C)C)c1ccccc1CCCc1ccccc12` [Compound A-1], the mortality at 125 ppm in experiment [1] is no less than 80%.
Consider `CN1OC2(N=C1N(C)C(C)(C)C)c1ccccc1CCCc1ccccc12` [Compound A-2], for which the mortality at 125 ppm in experiment [1] is no less than 80%.
For `CCN(C1=NC2(ON1C)c1ccccc1COc1ccccc12)C(C)(C)C` (stereo not drawn) [a-10], the mortality at 125 ppm in experiment [1] and in experiment [2] was no less than 80% throughout. Moreover, the pest or weed control at 125 ppm in experiment [3] is no less than 80%.
As to `CN1OC2(N=C1NC(C)(C)C)c1ccccc1COc1ccccc12` (stereo not drawn) [a-11, N-(tert-butyl)-2′-methyl-2′H,6H-spiro[dibenzo[b,e]oxepine-11,5′-[1,2,4]oxadiazol]-3′-amine], the mortality at 125 ppm in experiment [2] was no less than 80%. Moreover, in experiment [3], the pest or weed control at 125 ppm is no less than 80%.
For `CN1OC2(N=C1N(C)C(C)(C)C)c1ccccc1C=Cc1ccccc12` [a-17], the pest or weed control at 125 ppm in experiment [3] was no less than 80%.
For `CCN(C1=NC2(ON1N)c1ccccc1C=Cc1ccccc12)C(C)(C)C` [a-18], the mortality at 125 ppm in experiment [2] was no less than 80%.
Take `CN1OC2(N=C1NC(C)(C)C)c1ccccc1C=Cc1ccccc12` [a-19]: in experiment [2], the mortality at 125 ppm is no less than 80%.
For `CN1OC2(CC(C)(C)Oc3ccc(F)cc32)N=C1NC(C)(C)C` (stereo not drawn) [a-20, N-(tert-butyl)-6-fluoro-2,2,2′-trimethyl-2′H-spiro [chromane-4,5′-[1,2,4]oxadiazol]-3′-amine], the mortality at 125 ppm in experiment [1] and in experiment [2] was no less than 80% each time.
For `CC(C)(C)NC1=NC2(CCCc3ccccc32)ON1N` (stereo not drawn) [a-21], in experiment [1], the mortality at 125 ppm was no less than 80%.
Consider `CN1OC2(Cc3ccccc3Oc3ccccc32)N=C1NC(C)(C)C` (stereo not drawn) [a-22, N-(tert-butyl)-2′-methyl-2′H, 11H-spiro[dibenzo[b,f]oxepine-10,5′-[1,2,4]oxadiazol]-3′-amine], for which, in experiment [3], the pest or weed control at 125 ppm was no less than 80%.
In the case of `CN1OC2(N=C1N(C)C(C)(C)C)c1ccccc1COc1ccccc12` (stereo not drawn) [a-23], in experiment [3], the pest or weed control at 125 ppm is no less than 80%.
On to `CC(C)(C)NC1=NC2(CCc3ccccc32)ON1N` (stereo not drawn) [a-24], for which the mortality at 125 ppm in experiment [1] is no less than 80%.
With `CN1OC2(CC(c3ccccc3)c3ccccc32)N=C1NC(C)(C)C` (stereo not drawn) [a-25], the mortality at 125 ppm in experiment [1] and in experiment [2] was no less than 80% each time. Moreover, the pest or weed control at 125 ppm in experiment [3] was no less than 80%.
In the case of `CN1OC2(CCCOc3ccccc32)N=C1NC(C)(C)C` (stereo not drawn) [a-26], the mortality at 125 ppm in experiment [1] is no less than 80%.
In the case of `CN1OC2(N=C1NC(C)(C)C)c1ccc(Cl)cc1OCCC2c1ccccc1` (stereo not drawn) [a-29], in experiment [2], the mortality at 125 ppm was no less than 80%.
Still for that read-out and setting: as for `CC1CCOc2cc(Cl)ccc2C12N=C(NC(C)(C)C)N(N)O2` (stereo not drawn) [a-30], the figure is no less than 80%.
With `Cc1cc2c(s1)CCc1ccccc1C21N=C(NC(C)(C)C)N(C)O1` (stereo not drawn) [a-31], the pest or weed control at 125 ppm in experiment [3] was no less than 80%.
With `CN(C1=NC2(ON1N)c1ccccc1CCc1ccccc12)C(C)(C)C` [a-35], the pest or weed control at 125 ppm in experiment [3] is no less than 80%.
Same read-out and setting: the figure for `CN1OC2(N=C1N(C)C(C)(C)C)c1ccccc1CCc1sccc12` (stereo not drawn) [a-36] is no less than 80%; for `CN1OC2(N=C1N(C)C(C)(C)C)c1ccccc1CCc1sc(Cl)cc12` (stereo not drawn) [a-37] it is no less than 80%; for `CCN(C1=NC2(ON1N)c1ccccc1CCc1sc(Cl)cc12)C(C)(C)C` (stereo not drawn) [a-38] it is no less than 80%.

For the origin of these results see patent US20200170254A1, “OXADIAZOLINE COMPOUND AND FORMULATION FOR CONTROLLING HARMFUL ORGANISMS” (Nippon Soda Co., Ltd., priority 2017, published 2020).
